In data set [1] the test system is MCF7. Nature of the data set: Antiproliferative activity against human MCF7 cells assessed as inhibition of cell growth incubated for 48 hrs by XTT assay. It counts as functional, cell-based. The following applies: MCF7, 48 h. A general note: Tetrazolium dyes change colour on reduction, which living cells bring about.
Data set [2] deals with HeLa. Nature of the data set: Antiproliferative activity against human HeLa cells assessed as inhibition of cell growth incubated for 48 hrs by XTT assay. It counts as functional, cell-based.
Data set [3] concerns PC-3. Kind of data set: Antiproliferative activity against human PC-3 cells assessed as inhibition of cell growth incubated for 48 hrs by XTT assay. It counts as functional, cell-based. The conditions noted are these: PC-3, 48 h.
Data set [4] deals with HFF-1. Nature of the data set: Cytotoxicity against HFF-1 cells assessed as reduction in cell viability at 1 to 2 uM incubated for 48 hrs by XTT assay. It counts as toxicity, cell-based. The conditions noted are these: human, hff-1, 48 h, dose 1-2 µM.
The test system of data set [5] is NB1. Nature of the data set: Cytotoxicity against human NB1 cells immortalized with hTERT plasmid assessed as reduction in cell viability at 1 to 2 uM incubated for 48 hrs by XTT assay. In kind it is toxicity, cell-based. The conditions noted are these: nb1, 48 h, dose 1-2 µM.
The subject of data set [6] is HeLa. Kind of data set: Inhibition of colony formation in human HeLa cells at IC50 incubated for 2 weeks with culture medium replacement for every 3 days by crystal violet staining based analysis. It counts as functional, cell-based.
The test system of data set [7] is PC-3. Kind of data set: Inhibition of colony formation in human PC-3 cells at IC50 incubated for 2 weeks with culture medium replacement for every 3 days by crystal violet staining based analysis. It counts as functional, cell-based.
Data set [8] concerns HeLa. Nature of the data set: Induction of cell cycle arrest in human HeLa cells assessed as accumulation of cells at G1 phase at 1 uM incubated for 6 hrs by FACS flow cytometry analysis (reference value: 69.94 +/- 1.71 %). In kind it is functional. A general note: A flow cytometer gives signals particle by particle.
The subject of data set [9] is HeLa. Kind of data set: Induction of cell cycle arrest in human HeLa cells assessed as accumulation of cells at S phase at 1 uM incubated for 6 hrs by FACS flow cytometry analysis (reference value: 17.41 +/- 0.96 %). In kind it is functional.
For data set [10], the system named is HeLa. Kind of data set: Induction of cell cycle arrest in human HeLa cells assessed as accumulation of cells at G2/M phase at 1 uM incubated for 6 hrs by FACS flow cytometry analysis (reference value: 12.66 +/- 0.88 %). It counts as functional.
Data set [11] concerns HeLa. Kind of data set: Induction of cell cycle arrest in human HeLa cells assessed as accumulation of cells at G1 phase at 1 uM incubated for 18 hrs by FACS flow cytometry analysis (reference value: 69.94 +/- 1.25 %). It counts as functional.
Data set [12] concerns HeLa. Nature of the data set: Induction of cell cycle arrest in human HeLa cells assessed as accumulation of cells at S phase at 1 uM incubated for 18 hrs by FACS flow cytometry analysis (reference value: 17.41 +/- 1.16 %). In kind it is functional.
The subject of data set [13] is HeLa. Nature of the data set: Induction of cell cycle arrest in human HeLa cells assessed as accumulation of cells at G2/M phase at 1 uM incubated for 18 hrs by FACS flow cytometry analysis (reference value: 12.66 +/- 0.92 %). It counts as functional.
Data set [14] deals with PC-3. Nature of the data set: Induction of cell cycle arrest in human PC-3 cells assessed as accumulation of cells at G1 phase at 1 uM incubated for 6 hrs by FACS flow cytometry analysis (reference value: 44.2 +/- 2.21 %). It counts as functional.
For data set [15], the system named is PC-3. Nature of the data set: Induction of cell cycle arrest in human PC-3 cells assessed as accumulation of cells at S phase at 1 uM incubated for 6 hrs by FACS flow cytometry analysis (reference value: 35.06 +/- 1.85 %). In kind it is functional.
Data set [16] deals with PC-3. Nature of the data set: Induction of cell cycle arrest in human PC-3 cells assessed as accumulation of cells at G2/M phase at 1 uM incubated for 6 hrs by FACS flow cytometry analysis (reference value: 20.74 +/- 1.93 %). In kind it is functional.
For data set [17], the system named is PC-3. Kind of data set: Induction of cell cycle arrest in human PC-3 cells assessed as accumulation of cells at G1 phase at 1 uM incubated for 12 hrs by FACS flow cytometry analysis (reference value: 44.2 +/- 2.01 %). It counts as functional.
Data set [18] relates to PC-3. Nature of the data set: Induction of cell cycle arrest in human PC-3 cells assessed as accumulation of cells at S phase at 1 uM incubated for 12 hrs by FACS flow cytometry analysis (reference value: 35.06 +/- 1.36 %). It counts as functional.
The test system of data set [19] is PC-3. Kind of data set: Induction of cell cycle arrest in human PC-3 cells assessed as accumulation of cells at G2/M phase at 1 uM incubated for 12 hrs by FACS flow cytometry analysis (reference value: 20.74 +/- 1.95 %). It counts as functional.
Data set [20] addresses T1, Tubulin (Homo sapiens) (UniProt P68371+Q9H4B7+P0DPH7+P68366+Q13509+Q71U36+P04350+Q3ZCM7+P07437+P68363+Q9BQE3+Q6PEY2+Q13885+Q9BVA1+Q9BUF5). Kind of data set: Inhibition of tubulin polymerization in human HeLa cells assessed as irregular cell morphology at 0.5 uM incubated for 6 hrs by DAPI staining based fluorescence microscopic analysis.
In data set [21] the target is T1, Tubulin (Homo sapiens). Kind of data set: Inhibition of tubulin polymerization in human HeLa cells assessed as aberrations in mitotic spindle and nucleus at 0.5 uM incubated for 6 hrs by DAPI staining based fluorescence microscopic analysis. It counts as cell-based.
Data set [22] addresses T1, Tubulin (Homo sapiens). Nature of the data set: Inhibition of tubulin polymerization in human HeLa cells assessed as abnormal microtubule network at 0.5 uM incubated for 6 hrs by DAPI staining based fluorescence microscopic analysis. In kind it is cell-based.
In data set [23] the test system is HeLa. Kind of data set: Induction of apoptosis in human HeLa cells assessed as viable cells at 1 uM incubated for 24 hrs by Annexin V-FITC/7-AAD staining based flow cytometric analysis (reference value: 85.6 +/- 1.061%). In kind it is functional. The following applies: read-out: Activity.
For data set [24], the system named is HeLa. Nature of the data set: Induction of apoptosis in human HeLa cells assessed as early apoptotic cells at 1 uM incubated for 24 hrs by Annexin V-FITC/7-AAD staining based flow cytometric analysis (reference value: 2.7 +/- 0.424 %). It counts as functional.
Data set [25] concerns HeLa. Kind of data set: Induction of apoptosis in human HeLa cells assessed as late apoptotic cells at 1 uM incubated for 24 hrs by Annexin V-FITC/7-AAD staining based flow cytometric analysis (reference value: 11.1 +/- 0.778 %). In kind it is functional.
In data set [26] the test system is HeLa. Nature of the data set: Induction of apoptosis in human HeLa cells assessed as dead cells at 1 uM incubated for 24 hrs by Annexin V-FITC/7-AAD staining based flow cytometric analysis (reference value: 0.6 +/- 0.707 %). In kind it is functional.

What is called IC50 is the concentration needed to halve the response being measured.

Molecules are shown by their SMILES. Active and inactive are the calls of the source. No cut-off for these calls is given here.

As to `COc1cc(-c2nnc(-c3c(C)[nH]c4c3Cc3ccccc3-4)[se]2)cc(OC)c1OC`, the IC50 in data set [1], in data set [2] and in data set [3] was above 10 µM throughout.
Take `COc1ccc(-c2nnc(-c3c(C)[nH]c4c3Cc3ccccc3-4)s2)cc1`: the IC50 in data set [1], in data set [2] and in [3] was above 10 µM in each case.
Consider `Cc1[nH]c2c(c1-c1nnc(-c3ccccc3)s1)Cc1ccccc1-2`, for which the IC50 in data set [1] was 0.555 µM; in [2] it was 0.324 µM; in [3], 0.38 µM. Also, the Activity result is “Non-Toxic” in data set [4]; “Non-Toxic” in data set [5]; 26.59% in data set [8]; 40.38% in data set [9]; 33.03% in [10]; 22.86% in [11]. Also, the Activity stood at 20.62% in data set [12]; 56.51% in [13]; 44.45% in data set [14]; 21.51% in data set [15]; 34.04% in data set [16]; 15.37% in data set [17]. Moreover, the Activity came out at 23.79% in data set [18]; 60.84% in [19]; 9.2% in [24]; 22.7% in data set [25]; 4.3% in data set [26]. The inhibition entry in [6], in data set [7], in [20], in [21] and in [22] was “Active” in each case. The viability at 1 µM in data set [23] was 63.8%.
For the molecule `Cc1[nH]c2c(c1-c1nnc(-c3ccc(Cl)c(Cl)c3)[se]1)Cc1ccccc1-2`, the concentration for half-maximal inhibition (IC50) in [1], in [2] and in data set [3] was above 10 µM each time.
Consider `COc1cc(-c2nnc(-c3c(C)[nH]c4c3Cc3ccccc3-4)s2)cc(OC)c1OC`, for which the concentration for half-maximal inhibition (IC50) in [1], in [2] and in data set [3] was above 10 µM each time.
With `Cc1[nH]c2c(c1-c1nnc(-c3ccccc3Cl)[se]1)Cc1ccccc1-2`, the IC50 in [1] was determined as 0.091 µM; in data set [2], 0.005 µM; in data set [3], 0.067 µM. In addition, the Activity entry was “Non-Toxic” in [4]; “Non-Toxic” in [5]; 41.62% in data set [8]; 35.29% in [9]; 23.09% in data set [10]; 2.03% in [11]. Moreover, the Activity turned out to be 12.5% in data set [12]; 85.47% in data set [13]; 13.15% in data set [14]; 55.33% in data set [15]; 31.52% in [16]; 0.64% in data set [17]. For the same molecule, the Activity worked out at 5.7% in [18]; 93.66% in data set [19]; 11.9% in [24]; 58.2% in data set [25]; 5.3% in [26]. Besides, the inhibition entry in [6], in data set [7], in data set [20], in data set [21] and in data set [22] was “Active” throughout. Further, in [23], the viability at 1 µM was determined as 24.6%.
Turning to `Cc1[nH]c2c(c1-c1nnc(-c3ccc(Cl)cc3)[se]1)Cc1ccccc1-2`, the IC50 in data set [1], in [2] and in data set [3] was above 10 µM each time.
As for `Cc1[nH]c2c(c1-c1nnc(-c3cccc(Cl)c3)[se]1)Cc1ccccc1-2`, the IC50 in [1] came to 0.216 µM; in data set [2] it was 0.083 µM; in data set [3], 0.548 µM. In addition, the Activity entry in [4] is on record as “Non-Toxic”; in [5], “Non-Toxic”; in data set [8] it was 27.87%; in data set [9], 48.5%; in [10] it was 23.63%; in data set [11], 1.15%. Moreover, the Activity in data set [12] worked out at 9.44%; in data set [13] it was 89.4%; in data set [14], 10.43%; in data set [15], 54.7%; in data set [16], 34.87%; in data set [17], 1.87%. For the same molecule, the Activity is 8.65% in data set [18]; 89.48% in data set [19]; 2.7% in data set [24]; 15.4% in data set [25]; 1.8% in data set [26]. The inhibition result in data set [6], in [7], in data set [20], in data set [21] and in data set [22] was “Active” each time. Also, the viability at 1 µM in data set [23] was 80.1%.
On to `Cc1[nH]c2c(c1-c1nnc(-c3cccc(Cl)c3)s1)Cc1ccccc1-2`, for which the IC50 in data set [1], in data set [2] and in [3] was above 10 µM throughout.
`Cc1[nH]c2c(c1-c1nnc(-c3ccc(Cl)cc3)s1)Cc1ccccc1-2`: the IC50 in [1], in [2] and in data set [3] was above 10 µM each time.
`Cc1[nH]c2c(c1-c1nnc(-c3ccc(C(C)(C)C)cc3)[se]1)Cc1ccccc1-2`: the IC50 in data set [1], in data set [2] and in [3] was above 10 µM in each case.
`Cc1[nH]c2c(c1-c1nnc(-c3ccc(Cl)c(Cl)c3)s1)Cc1ccccc1-2`: the IC50 in data set [1], in data set [2] and in data set [3] was above 10 µM in each case.
With `COc1ccc(-c2nnc(-c3c(C)[nH]c4c3Cc3ccccc3-4)[se]2)cc1`, the IC50 in data set [1], in [2] and in data set [3] was above 10 µM in each case.
For `Cc1[nH]c2c(c1-c1nnc(-c3ccc(C(C)(C)C)cc3)s1)Cc1ccccc1-2`, the IC50 in data set [1], in data set [2] and in [3] was above 10 µM in each case.

For the origin of these results see ChEMBL document CHEMBL5113401, “Novel 1,3,4-oxadiazole chalcogen analogues: Synthesis and cytotoxic activity” (Eur J Med Chem, 2022).
